Test results from patent US20100029554A1, “Composition and Methods for Treatment of Congestive Heart Failure” (Amylin Pharmaceuticals, Inc., priority 2006, published 2010).
pEC50, pIC50: −log10 of the molar value. Where no end group is shown, it is not given here.

How the values were obtained:
[1] = biological target: T1, GLP-1 receptors (RINm5f cell membranes) (Rattus norvegicus, UniProt P32301); test: Receptor binding assay, RBA GLP (RIN); conditions: [125I] human GLP-1 displacement
T1 construct: RINm5f cells expressing endogenous GLP-1 receptors; endogenous in cells; host or cells: RINm5f cell membranes
T1 sequence (P32301 22-463): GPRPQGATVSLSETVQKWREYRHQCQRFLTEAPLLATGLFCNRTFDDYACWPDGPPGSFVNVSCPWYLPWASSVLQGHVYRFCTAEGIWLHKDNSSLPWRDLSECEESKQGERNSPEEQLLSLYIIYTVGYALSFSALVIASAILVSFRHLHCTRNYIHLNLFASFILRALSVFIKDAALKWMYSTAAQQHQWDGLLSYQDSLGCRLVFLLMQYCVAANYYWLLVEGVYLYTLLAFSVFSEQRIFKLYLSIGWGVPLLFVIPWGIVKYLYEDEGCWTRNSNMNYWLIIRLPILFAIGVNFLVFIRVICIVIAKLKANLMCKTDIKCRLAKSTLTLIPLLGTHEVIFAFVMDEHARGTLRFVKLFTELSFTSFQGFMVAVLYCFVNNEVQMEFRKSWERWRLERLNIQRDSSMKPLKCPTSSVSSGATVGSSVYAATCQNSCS
From the text: The well contents are harvested onto 96 well glass fiber plates using a Perkin Elmer plate harvestor. Dried glass fiber plates are combined with scintillant and counted on a Perkin Elmer scintillation counter.

[2] = system: GLP/GIP/CT cyclase, RIN-m5F cells; test: GLP/GIP/CT Cyclase (RIN) assay; assay type: cell-based, rat; conditions: cAMP, values without **
Experimental: GLP/GIP/CT Cyclase (RIN) Assay
(§1) Five μl of serially diluted peptides are transferred to the 384-well assay plate. Rat pancreas insulinoma cells (RIN-m5F) are detached from a tissue culture flask with Versene and washed once in buffer. Then RIN-m5F cells are resusupended in buffer at 2.5×10^6 cells/ml. Then 10 μl cells (2.5×10^4 cells) are added to all wells of the assay plate and cells are stimulated at room temperature in the dark for 30 minutes. The reaction is terminated with 10 μl of lysis buffer and incubated at room temperature for 4 hrs in the dark. cAMP content is measured using Perkin Elmer AlphaScreen™ cAMP assay kit and results are read on a Perkin Elmer Fusion fluorometer. The assay is completed in 384-well plates at 25 microliter volumes.

[3] = Plasma stability; assay type: in vitro ADME; conditions: 20 μg/mL in plasma, 37° C., 0-5 hours
Experimental: To assess stability, the compound of interest is spiked into plasma at a concentration of 20 μg/mL. It is incubated at 37° C. for 0, 1, 2 3, 4, 5 hours in triplicate. At each time point, MeOH is added to a 96 well microtiter plate and then sample is added in a ratio of 1 part sample to 4 parts MeOH to quench the digestion reaction. Samples are mixed with multi-channel pipette or liquid handler. The plate is then centrifuged for 10 minutes and placed in an autosampler kept at 10° C. Samples are then injected into a mass spectrometer (API 3000, Applied Biosystems) equipped with an autosampler (Leap HTC Pal) and HPLC pumps (Shimadzu LC-10ADVP).

[4] = system: NH/Swiss mice; test: Glucose lowering assay; assay type: in vivo, mouse; conditions: IP
Experimental: Female NH/Swiss mice (˜8-20 weeks of age), (Harlan, Indianapolis, Ind., USA), housed 3 mice per cage, are allowed ad libitum access to food and water until the start of the experiment. At two hours prior to treatment, access to food is restricted.
At the time of treatment, the tip of the tail is pricked with a needle to obtain 1 μl blood as a “pre-treatment” control blood sample. Immediately thereafter, each mouse is injected intraperitoneally (IP) with a test sample (1 nmol/kg or 2 nmol/kg) or 200 μl vehicle (10% DMSO saline). Additional blood samples are collected at 30, 60, 120, 180, and 240 minutes after injection.
Blood glucose is measured with a glucose oxidase biosensor (OneTouch® Ultra® (LifeScan, Inc., a Johnson & Johnson Company, Milpitas, Calif.)). At each time point, the effect of the test sample is expressed as the percent change in blood glucose relative to mice injected with vehicle only. Test samples and vehicle controls are also compared to their respective “pre-treatment” controls.
Significant test sample effects are identified by ANOVA (p<0.05). Where a significant difference existed, test means are compared to the control mean with Dunnett's post test using GraphPad Prism version 4.00 for Windows, GraphPad Software, San Diego Calif. USA, www.graphpad.com).

[5] = system: NIH:Swiss mice; test: Food intake assay; assay type: in vivo, mouse; conditions: IP, dose 10 nmol/kg
Experimental: All mice (NIH:Swiss mice) are housed in a stable environment of 22 (±2)° C., 60 (±10)% humidity and a 12:12 light:dark cycle; with lights on at 0300. Mice are housed in groups of three in standard cages with ad libitum access to food (Teklad: LM 485; Madison, Wis.) and water except as noted, for at least two weeks before the experiments.
All experiments are conducted between the hours of 0700 and 0900. The mice are food deprived (food removed at 1530 hr from all animals on day prior to experiment). […] The food pellet is weighed at 30-minute, 1-hr, and 2-hr intervals to determine the amount of food eaten.
Significant test sample effects are identified by ANOVA (p<0.05). Where a significicant difference exists, test means are compared to the control mean using Dunnett's test. One-way ANOVA with Dunnett's post test is performed using GraphPad Prism version 3.01 for Windows, GraphPad Software, San Diego Calif.

[6] = system: GLP-1 cyclase, rat thyroid carcinoma cells (6-23); test: GLP-1 Cyclase (6-23) assay; assay type: cell-based; conditions: cAMP, 6-23 cells; values marked **
Experimental: as §1, with “thyroid carcinoma” for “pancreas insulinoma”, “(6-23)” for “(RIN-m5F)”, “6-23” for “RIN-m5F”, “3.0×10^6” for “2.5×10^6”, “(3.0×10^4” for “(2.5×10^4”, “μl” for “microliter”

Compound	pIC50 [1]	pEC50 [2]	plasma stability as compared to native GLP-1 [3]	GLU LOWERING AUC240 @1 nmol/kg ([4]; 1 nmol/kg)	FOOD INTAKE at 60 min [5]	pEC50 [6]	GLU LOWERING AUC240 @2 nmol/kg ([4]; 2 nmol/kg, change in blood glucose relative to vehicle)	plasma stability as compared to native GLP-1 ([3]; second, narrower list of b152)
CC[C@H](C)[C@H](NC(=O)[C@@H]1CCCN1C(=O)[C@@H](NC(=O)CNC(=O)CNC(=O)CNC(=O)[C@H](CCCNC(=N)N)NC(=O)CNC(=O)[C@H](CCCCN)NC(=O)[C@@H](NC(=O)[C@H](CC(C)C)NC(=O)[C@H](Cc1c[nH]c2ccccc12)NC(=O)[C@H](C)NC(=O)[C@@H](NC(=O)[C@H](Cc1ccccc1)NC(=O)[C@H](CCC(=O)O)NC(=O)[C@H](CCCCN)NC(=O)[C@H](C)NC(=O)[C@H](C)NC(=O)[C@H](CCC(N)=O)NC(=O)CNC(=O)[C@H](CCC(=O)O)NC(=O)[C@H](CC(C)C)NC(=O)[C@H](Cc1ccc(O)cc1)NC(=O)[C@H](CO)NC(=O)[C@H](CO)NC(=O)[C@@H](NC(=O)[C@H](CC(=O)O)NC(=O)[C@H](CO)NC(=O)[C@@H](NC(=O)[C@H](Cc1ccccc1)NC(=O)[C@@H](NC(=O)CNC(=O)[C@H](CCC(=O)O)NC(=O)[C@H](C)NC(=O)[C@@H](N)Cc1c[nH]cn1)[C@@H](C)O)[C@@H](C)O)C(C)C)[C@@H](C)CC)C(C)C)[C@@H](C)CC)C(N)=O [Cmpd 4957]	10.00	9.29	–	–	–	–	–	–
CC[C@H](C)[C@H](NC(=O)[C@H](Cc1ccccc1)NC(=O)[C@H](CCC(=O)O)NC(=O)[C@H](CCCCN)NC(=O)[C@H](C)NC(=O)[C@H](C)NC(=O)[C@H](CCCCN)NC(=O)[C@H](CCC(=O)O)NC(=O)[C@H](CCC(=O)O)NC(=O)[C@H](CC(C)C)NC(=O)[C@H](CCC(N)=O)NC(=O)[C@H](CCCCN)NC(=O)[C@H](CO)NC(=O)[C@H](CC(C)C)NC(=O)[C@H](CC(=O)O)NC(=O)[C@H](CO)NC(=O)[C@@H](NC(=O)[C@H](Cc1ccccc1)NC(=O)[C@@H](NC(=O)CNC(=O)[C@H](CCC(=O)O)NC(=O)CNC(=O)[C@@H](N)Cc1c[nH]cn1)[C@@H](C)O)[C@@H](C)O)C(=O)N[C@@H](CCC(=O)O)C(=O)N[C@@H](Cc1c[nH]c2ccccc12)C(=O)N[C@@H](CC(C)C)C(=O)N[C@@H](CCCCN)C(=O)N[C@@H](CCC(N)=O)C(=O)NCC(=O)NCC(=O)N1CCC[C@H]1C(=O)N[C@@H](CO)C(=O)N[C@@H](CO)C(=O)NCC(=O)N[C@@H](C)C(=O)N1CCC[C@H]1C(=O)N1CCC[C@H]1C(=O)N1CCC[C@H]1C(=O)N[C@@H](CO)C(N)=O [Cmpd 5100]	8.74	–	increased plasma stability	−16%	−66%	–	–	–
CC[C@H](C)[C@H](NC(=O)[C@H](Cc1ccccc1)NC(=O)[C@H](CC(C)C)NC(=O)[C@H](CCCNC(=N)N)NC(=O)[C@@H](NC(=O)[C@H](C)NC(=O)[C@H](CCC(=O)O)NC(=O)[C@H](CCC(=O)O)NC(=O)[C@H](CCC(=O)O)NC(=O)[C@H](CC(C)C)NC(=O)[C@H](Cc1ccc(O)cc1)NC(=O)[C@H](CCC(=O)O)NC(=O)[C@@H](NC(=O)[C@@H](NC(=O)[C@H](CC(=O)O)NC(=O)[C@H](CC(N)=O)NC(=O)[C@@H](NC(=O)[C@H](Cc1ccc(O)cc1)NC(=O)[C@@H](NC(=O)CNC(=O)[C@H](CCC(=O)O)NC(=O)CNC(=O)[C@@H](N)Cc1c[nH]cn1)[C@@H](C)O)[C@@H](C)O)C(C)C)[C@@H](C)O)C(C)C)C(=O)N[C@@H](CCC(=O)O)C(=O)N[C@@H](Cc1c[nH]c2ccccc12)C(=O)N[C@@H](CC(C)C)C(=O)N[C@@H](CCCCN)C(=O)N[C@@H](CCC(N)=O)C(=O)NCC(=O)NCC(=O)N1CCC[C@H]1C(=O)N[C@@H](CO)C(=O)N[C@@H](CO)C(=O)NCC(=O)N[C@@H](C)C(=O)N1CCC[C@H]1C(=O)N1CCC[C@H]1C(=O)N1CCC[C@H]1C(=O)N[C@@H](CO)C(N)=O [Cmpd 5130]	–	9.05	increased plasma stability	–	–	10.26	−22%	–
HGEGTFTSDLVKILEAEAVRKFIEFLKNGGPSSGAPPPS-NH2 [Cmpd 5529]	–	–	–	–	–	9.41	–	–
HGEGTFTSDVTEYLEEEAVRLFIEWLKQGGPSSGAPPPS-NH2 [Cmpd 5129]	8.52	8.96	increased plasma stability	–	–	–	–	increased plasma stability
